From ChEMBL document CHEMBL5360526, “Discovery of BET specific bromodomain inhibitors with a novel scaffold” (Bioorg Med Chem, 2022)
One block for each molecule: values may come before it.

Experiments:
[1] = target: T1, Bromodomain-containing protein 4 (Homo sapiens, UniProt O60885); experiment: Inhibition of N-terminal GST-tagged/C-terminal 6His-tagged BRD4 BD1 (47 to 170 residues) (unknown origin) expressed in Escherichia coli BL21 (DE3) using SGRGK(Ac)GGK(Ac)GLGK(Ac) GGAK(Ac)RHRK-biotinylated peptide as substrate incubated for 60 mins by alpha screen assay
[2] = target: T1, Bromodomain-containing protein 4; experiment: Inhibition of BRD4 BD2 (unknown origin) using SGRGK(Ac)GGK(Ac)GLGK(Ac) GGAK(Ac)RHRK-biotinylated peptide as substrate incubated for 60 mins by alpha screen assay
[3] = target: Histone acetyltransferase KAT2B (Homo sapiens) (UniProt Q92831); experiment: Inhibition of PCAF (unknown origin) assessed as remaining activity
[4] = target: Protein polybromo-1 (Homo sapiens) (UniProt Q86U86); experiment: Inhibition of PBRM1 BD5 (unknown origin) assessed as remaining activity
Sequence of Protein polybromo-1 (Homo sapiens) (Q86U86 whole entry, the tested form may be a part): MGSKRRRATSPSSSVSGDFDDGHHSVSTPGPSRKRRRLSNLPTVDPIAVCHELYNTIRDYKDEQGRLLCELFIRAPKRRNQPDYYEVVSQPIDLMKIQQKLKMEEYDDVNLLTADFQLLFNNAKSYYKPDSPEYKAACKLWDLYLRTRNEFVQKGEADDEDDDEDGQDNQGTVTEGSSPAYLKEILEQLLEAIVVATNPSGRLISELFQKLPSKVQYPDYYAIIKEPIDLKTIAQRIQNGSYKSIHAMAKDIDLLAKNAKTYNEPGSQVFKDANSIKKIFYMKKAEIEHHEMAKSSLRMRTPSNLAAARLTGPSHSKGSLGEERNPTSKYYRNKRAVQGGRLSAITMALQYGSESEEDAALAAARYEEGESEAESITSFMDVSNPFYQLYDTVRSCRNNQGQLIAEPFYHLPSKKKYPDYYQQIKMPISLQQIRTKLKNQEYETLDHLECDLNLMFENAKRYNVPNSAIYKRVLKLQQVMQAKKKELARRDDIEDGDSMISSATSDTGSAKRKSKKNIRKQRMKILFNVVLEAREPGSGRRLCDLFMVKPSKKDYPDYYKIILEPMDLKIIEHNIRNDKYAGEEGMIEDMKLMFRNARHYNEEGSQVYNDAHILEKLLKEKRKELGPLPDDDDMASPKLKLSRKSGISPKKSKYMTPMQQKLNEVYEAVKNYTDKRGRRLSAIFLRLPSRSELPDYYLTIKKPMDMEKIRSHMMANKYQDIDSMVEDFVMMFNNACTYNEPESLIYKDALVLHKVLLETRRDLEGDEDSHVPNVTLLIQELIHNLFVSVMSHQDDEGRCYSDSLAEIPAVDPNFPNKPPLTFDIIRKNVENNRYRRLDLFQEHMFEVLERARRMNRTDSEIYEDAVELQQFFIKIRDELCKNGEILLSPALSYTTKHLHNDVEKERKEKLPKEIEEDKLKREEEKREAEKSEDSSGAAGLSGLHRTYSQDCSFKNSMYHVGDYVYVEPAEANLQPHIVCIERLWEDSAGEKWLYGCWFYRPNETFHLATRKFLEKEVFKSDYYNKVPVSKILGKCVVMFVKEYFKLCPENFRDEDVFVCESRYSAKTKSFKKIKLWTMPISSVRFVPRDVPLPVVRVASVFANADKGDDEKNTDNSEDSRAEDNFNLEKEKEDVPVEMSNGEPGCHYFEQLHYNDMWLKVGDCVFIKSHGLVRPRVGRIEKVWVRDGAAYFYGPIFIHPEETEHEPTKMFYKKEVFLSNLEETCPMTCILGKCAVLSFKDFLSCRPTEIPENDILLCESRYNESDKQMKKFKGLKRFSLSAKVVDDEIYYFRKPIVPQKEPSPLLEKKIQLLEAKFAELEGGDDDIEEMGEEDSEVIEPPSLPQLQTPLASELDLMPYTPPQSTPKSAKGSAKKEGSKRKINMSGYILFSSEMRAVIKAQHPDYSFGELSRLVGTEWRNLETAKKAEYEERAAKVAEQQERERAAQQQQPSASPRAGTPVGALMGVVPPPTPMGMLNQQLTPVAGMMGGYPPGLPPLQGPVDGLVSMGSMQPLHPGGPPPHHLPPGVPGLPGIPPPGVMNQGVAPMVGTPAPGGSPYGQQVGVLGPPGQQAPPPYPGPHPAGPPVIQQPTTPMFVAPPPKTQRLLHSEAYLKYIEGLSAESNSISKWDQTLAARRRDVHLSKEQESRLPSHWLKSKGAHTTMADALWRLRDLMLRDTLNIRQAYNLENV

[5] = target: Protein polybromo-1 (Homo sapiens) (UniProt Q86U86); experiment: Inhibition of PBRM1 BD2 (unknown origin) assessed as remaining activity
[6] = target: ATPase family AAA domain-containing protein 2 (Homo sapiens) (UniProt Q6PL18); experiment: Inhibition of ATAD2A (unknown origin) assessed as remaining activity
[7] = target: ATPase family AAA domain-containing protein 2B (Homo sapiens) (UniProt Q9ULI0); experiment: Inhibition of ATAD2B (unknown origin) assessed as remaining activity
[8] = target: Bromodomain adjacent to zinc finger domain protein 2A (Homo sapiens) (UniProt Q9UIF9); experiment: Inhibition of BAZ2A (unknown origin) assessed as remaining activity
[9] = target: Bromodomain adjacent to zinc finger domain protein 2B (Homo sapiens) (UniProt Q9UIF8); experiment: Inhibition of BAZ2B (unknown origin) assessed as remaining activity
[10] = target: Bromodomain-containing protein 1 (Homo sapiens) (UniProt O95696); experiment: Inhibition of BRD1 (unknown origin) assessed as remaining activity
[11] = target: Bromodomain-containing protein 2 (Homo sapiens) (UniProt P25440); experiment: Inhibition of BRD2 BD1 (unknown origin) assessed as remaining activity
Sequence of Bromodomain-containing protein 2 (Homo sapiens) (P25440 whole entry, looked up): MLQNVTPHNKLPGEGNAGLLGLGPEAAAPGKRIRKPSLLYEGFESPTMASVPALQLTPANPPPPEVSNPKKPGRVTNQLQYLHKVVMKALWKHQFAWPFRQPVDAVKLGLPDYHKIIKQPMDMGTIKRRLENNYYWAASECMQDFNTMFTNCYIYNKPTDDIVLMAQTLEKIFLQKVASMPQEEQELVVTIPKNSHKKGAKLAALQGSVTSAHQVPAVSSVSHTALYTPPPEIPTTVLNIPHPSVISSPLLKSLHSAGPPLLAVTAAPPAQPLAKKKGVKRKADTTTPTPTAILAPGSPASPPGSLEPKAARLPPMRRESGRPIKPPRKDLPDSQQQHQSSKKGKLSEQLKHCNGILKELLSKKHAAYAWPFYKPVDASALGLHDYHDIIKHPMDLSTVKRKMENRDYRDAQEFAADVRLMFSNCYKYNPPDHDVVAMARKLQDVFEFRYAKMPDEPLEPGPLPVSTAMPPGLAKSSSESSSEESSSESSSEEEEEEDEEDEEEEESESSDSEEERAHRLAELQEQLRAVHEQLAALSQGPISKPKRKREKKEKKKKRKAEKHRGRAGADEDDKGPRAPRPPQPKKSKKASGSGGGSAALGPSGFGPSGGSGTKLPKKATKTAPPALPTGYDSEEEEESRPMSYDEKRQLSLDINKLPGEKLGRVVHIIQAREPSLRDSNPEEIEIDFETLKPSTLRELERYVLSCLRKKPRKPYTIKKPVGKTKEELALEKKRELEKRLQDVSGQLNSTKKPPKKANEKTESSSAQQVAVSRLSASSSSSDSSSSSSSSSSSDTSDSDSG

[12] = target: Bromodomain-containing protein 2 (Homo sapiens) (UniProt P25440); experiment: Inhibition of BRD2 BD2 (unknown origin) assessed as remaining activity
[13] = target: Bromodomain-containing protein 3 (Homo sapiens) (UniProt Q15059); experiment: Inhibition of BRD3 BD1 (unknown origin) assessed as remaining activity
Sequence of Bromodomain-containing protein 3 (Homo sapiens) (Q15059 2-726 limits assumed): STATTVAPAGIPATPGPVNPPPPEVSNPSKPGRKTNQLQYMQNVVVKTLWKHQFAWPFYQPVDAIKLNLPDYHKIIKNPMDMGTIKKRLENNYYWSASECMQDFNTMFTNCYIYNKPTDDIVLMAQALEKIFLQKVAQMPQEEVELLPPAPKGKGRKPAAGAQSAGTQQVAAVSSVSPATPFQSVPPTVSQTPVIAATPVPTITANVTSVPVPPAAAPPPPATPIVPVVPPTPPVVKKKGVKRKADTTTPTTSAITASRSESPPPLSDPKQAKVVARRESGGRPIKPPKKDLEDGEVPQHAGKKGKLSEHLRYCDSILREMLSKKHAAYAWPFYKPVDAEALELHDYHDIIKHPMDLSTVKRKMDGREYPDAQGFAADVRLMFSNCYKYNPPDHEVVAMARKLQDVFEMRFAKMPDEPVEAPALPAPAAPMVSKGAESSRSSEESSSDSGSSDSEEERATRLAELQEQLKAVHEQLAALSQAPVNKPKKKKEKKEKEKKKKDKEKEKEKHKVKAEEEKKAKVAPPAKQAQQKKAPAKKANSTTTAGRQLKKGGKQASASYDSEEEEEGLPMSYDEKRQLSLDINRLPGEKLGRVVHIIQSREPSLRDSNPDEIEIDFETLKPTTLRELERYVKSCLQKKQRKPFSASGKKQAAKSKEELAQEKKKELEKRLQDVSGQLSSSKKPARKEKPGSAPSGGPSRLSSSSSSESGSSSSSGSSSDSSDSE

[14] = target: Bromodomain-containing protein 3 (Homo sapiens) (UniProt Q15059); experiment: Inhibition of BRD3 BD2 (unknown origin) assessed as remaining activity
[15] = target: T1, Bromodomain-containing protein 4; experiment: Inhibition of BRD4 BD1 (unknown origin) assessed as remaining activity
[16] = target: T1, Bromodomain-containing protein 4; experiment: Inhibition of BRD4 BD2 (unknown origin) assessed as remaining activity
[17] = target: SWI/SNF-related matrix-associated actin-dependent regulator of chromatin subfamily A member 2 (Homo sapiens) (UniProt P51531); experiment: Inhibition of SMARCA2 (unknown origin) assessed as remaining activity
[18] = target: SWI/SNF-related matrix-associated actin-dependent regulator of chromatin subfamily A member 4 (Homo sapiens) (UniProt P51532); experiment: Inhibition of SMARCA4 (unknown origin) assessed as remaining activity
[19] = target: Transcription initiation factor TFIID subunit 1 (Homo sapiens) (UniProt P21675); experiment: Inhibition of TAF1 BD2 (unknown origin) assessed as remaining activity
Sequence of Transcription initiation factor TFIID subunit 1 (Homo sapiens) (P21675 whole entry): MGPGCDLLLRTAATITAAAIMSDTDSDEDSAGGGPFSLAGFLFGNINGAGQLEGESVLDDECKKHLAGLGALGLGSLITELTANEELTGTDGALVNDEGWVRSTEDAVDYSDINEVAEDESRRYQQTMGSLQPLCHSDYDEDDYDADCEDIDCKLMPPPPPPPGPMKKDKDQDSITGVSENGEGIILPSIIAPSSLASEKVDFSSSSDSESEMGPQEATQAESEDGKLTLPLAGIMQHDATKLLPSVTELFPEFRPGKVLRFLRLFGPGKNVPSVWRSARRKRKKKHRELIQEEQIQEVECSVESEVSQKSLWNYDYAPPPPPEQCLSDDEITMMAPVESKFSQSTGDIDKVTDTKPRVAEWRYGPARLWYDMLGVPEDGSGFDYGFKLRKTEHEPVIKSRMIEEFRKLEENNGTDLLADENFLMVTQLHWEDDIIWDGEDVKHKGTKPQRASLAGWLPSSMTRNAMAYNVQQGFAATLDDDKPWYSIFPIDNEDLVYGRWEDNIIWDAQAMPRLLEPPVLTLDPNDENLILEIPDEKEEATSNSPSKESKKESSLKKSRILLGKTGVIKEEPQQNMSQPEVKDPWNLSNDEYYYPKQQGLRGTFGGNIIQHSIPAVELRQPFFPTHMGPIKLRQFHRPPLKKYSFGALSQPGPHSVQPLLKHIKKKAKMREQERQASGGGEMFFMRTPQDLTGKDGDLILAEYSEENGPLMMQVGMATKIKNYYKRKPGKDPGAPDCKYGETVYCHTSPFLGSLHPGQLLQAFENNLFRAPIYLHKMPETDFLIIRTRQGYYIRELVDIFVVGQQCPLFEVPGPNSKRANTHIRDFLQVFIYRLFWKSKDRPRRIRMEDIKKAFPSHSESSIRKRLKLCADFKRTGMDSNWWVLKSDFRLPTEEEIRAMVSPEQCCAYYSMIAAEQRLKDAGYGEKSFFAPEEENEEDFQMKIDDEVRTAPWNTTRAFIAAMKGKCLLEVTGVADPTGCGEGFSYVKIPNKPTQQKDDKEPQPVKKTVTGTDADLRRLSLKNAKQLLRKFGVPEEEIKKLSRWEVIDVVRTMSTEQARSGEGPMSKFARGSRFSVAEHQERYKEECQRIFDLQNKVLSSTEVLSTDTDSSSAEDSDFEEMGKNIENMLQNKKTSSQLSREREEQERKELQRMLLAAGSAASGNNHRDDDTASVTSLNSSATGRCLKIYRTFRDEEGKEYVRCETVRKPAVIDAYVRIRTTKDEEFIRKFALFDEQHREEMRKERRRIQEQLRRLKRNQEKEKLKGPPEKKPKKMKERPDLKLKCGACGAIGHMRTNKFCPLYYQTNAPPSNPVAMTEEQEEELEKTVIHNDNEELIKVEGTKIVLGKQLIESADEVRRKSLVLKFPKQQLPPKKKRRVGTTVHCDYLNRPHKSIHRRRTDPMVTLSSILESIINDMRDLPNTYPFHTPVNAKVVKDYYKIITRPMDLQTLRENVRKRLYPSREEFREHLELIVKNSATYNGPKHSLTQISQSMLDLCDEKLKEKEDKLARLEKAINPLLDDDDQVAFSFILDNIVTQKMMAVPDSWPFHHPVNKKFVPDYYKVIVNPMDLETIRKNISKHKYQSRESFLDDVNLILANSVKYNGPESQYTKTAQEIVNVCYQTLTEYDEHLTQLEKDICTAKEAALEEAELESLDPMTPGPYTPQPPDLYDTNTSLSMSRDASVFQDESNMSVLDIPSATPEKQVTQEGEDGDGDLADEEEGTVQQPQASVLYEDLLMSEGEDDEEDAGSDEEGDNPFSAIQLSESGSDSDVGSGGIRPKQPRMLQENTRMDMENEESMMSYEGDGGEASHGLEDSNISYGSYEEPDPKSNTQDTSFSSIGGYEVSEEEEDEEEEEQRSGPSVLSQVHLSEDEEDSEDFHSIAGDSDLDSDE

[20] = target: Transcription initiation factor TFIID subunit 1-like (Homo sapiens) (UniProt Q8IZX4); experiment: Inhibition of TAF1L BD2 (unknown origin) assessed as remaining activity
[21] = target: Transcription intermediary factor 1-alpha (Homo sapiens) (UniProt O15164); experiment: Inhibition of TRIM24 (unknown origin) assessed as remaining activity
[22] = target: E3 ubiquitin-protein ligase TRIM33 (Homo sapiens) (UniProt Q9UPN9); experiment: Inhibition of TRIM33 (unknown origin) assessed as remaining activity
[23] = target: Bromodomain and WD repeat-containing protein 1 (Homo sapiens) (UniProt Q9NSI6); experiment: Inhibition of WDR9 BD2 (unknown origin) assessed as remaining activity
[24] = target: Bromodomain-containing protein 7 (Homo sapiens) (UniProt Q9NPI1); experiment: Inhibition of BRD7 (unknown origin) assessed as remaining activity
[25] = target: Bromodomain-containing protein 9 (Homo sapiens) (UniProt Q9H8M2); experiment: Inhibition of BRD9 (unknown origin) assessed as remaining activity
[26] = target: Bromodomain testis-specific protein (Homo sapiens) (UniProt Q58F21); experiment: Inhibition of BRDT BD1 (unknown origin) assessed as remaining activity
[27] = target: Bromodomain testis-specific protein (Homo sapiens) (UniProt Q58F21); experiment: Inhibition of BRDT BD2 (unknown origin) assessed as remaining activity
Peregrin (Homo sapiens) = Peregrin (Homo sapiens) (UniProt P55201); experiment: Inhibition of BRPF1 (unknown origin) assessed as remaining activity
[28] = target: Bromodomain and PHD finger-containing protein 3 (Homo sapiens) (UniProt Q9ULD4); experiment: Inhibition of BRPF3 (unknown origin) assessed as remaining activity
[29] = target: Chromatin remodeling regulator CECR2 (Homo sapiens) (UniProt Q9BXF3); experiment: Inhibition of CECR2 (unknown origin) assessed as remaining activity
[30] = target: CREB-binding protein (Homo sapiens) (UniProt Q92793); experiment: Inhibition of CREBBP (unknown origin) assessed as remaining activity
[31] = target: Histone acetyltransferase p300 (Homo sapiens) (UniProt Q09472); experiment: Inhibition of EP300 (unknown origin) assessed as remaining activity
[32] = target: Nucleosome-remodeling factor subunit BPTF (Homo sapiens) (UniProt Q12830); experiment: Inhibition of FALZ (unknown origin) assessed as remaining activity
[33] = target: Histone acetyltransferase KAT2A (Homo sapiens) (UniProt Q92830); experiment: Inhibition of GCN5L2 (unknown origin) assessed as remaining activity
[34] = Microsomal stability in mouse liver microsomes assessed as parent compound remaining measured after 30 mins; format: ADME, Microsome; details: read-out: Stability
[35] = Microsomal stability in human liver microsomes assessed as parent compound remaining measured after 30 mins; format: ADME, Microsome; details: read-out: Stability

IC50 [1]: 7.97 µM
IC50 [2]: 11.5 µM
SMILES: CN(C)S(=O)(=O)Nc1ccc(NCCN2CCOCC2)nc1Nc1ccc2[nH]nnc2c1

IC50 [1]: 5.41 µM
IC50 [2]: 15 µM
SMILES: CN(C)S(=O)(=O)Nc1ccc(NCCCN2CCOCC2)nc1Nc1ccc2[nH]nnc2c1

IC50 [1]: 6.85 µM
IC50 [2]: 9.95 µM
SMILES: CN(C)S(=O)(=O)Nc1ccc(NC2COC2)nc1Nc1ccc2[nH]nnc2c1

IC50 [1]: 6.22 µM
IC50 [2]: 23 µM
SMILES: CN(C)S(=O)(=O)Nc1ccc(NCc2ccco2)nc1Nc1ccc2[nH]nnc2c1

IC50 [1]: 5.25 µM
SMILES: CN(C)S(=O)(=O)Nc1ccc(NCCc2ccccc2)nc1Nc1ccc2[nH]nnc2c1

IC50 [1]: 1.69 µM
IC50 [2]: 2.05 µM
SMILES: CC(C)Nc1ccc(NS(=O)(=O)N(C)C)c(Nc2ccc3[nH]nnc3c2)n1

IC50 [1]: 20.1 µM
IC50 [2]: 10.4 µM
SMILES: CN(C)S(=O)(=O)Nc1ccc(N2CCS(=O)(=O)CC2)nc1Nc1ccc2[nH]nnc2c1

Activity [3]: 88%
Activity [4]: 73%
Activity [5]: 44%
IC50 [1]: 2.86 µM
IC50 [2]: 8.01 µM
Activity [6]: 66%
Activity [7]: 55%
Activity [8]: 82%
Activity [9]: 84%
Activity [10]: 42%
Activity [11]: 0%
Activity [12]: 19%
Activity [13]: 0.95%
Activity [14]: 35%
Activity [15]: 0.45%
Activity [16]: 22%
Activity [17]: 62%
Activity [18]: 75%
Activity [19]: 31%
Activity [20]: 86%
Activity [21]: 98%
Activity [22]: 92%
Activity [23]: 44%
Activity [24]: 67%
Activity [25]: 64%
Activity [26]: 2.7%
Activity [27]: 32%
Activity (Peregrin (Homo sapiens)): 78%
Activity [28]: 71%
Activity [29]: 73%
Activity [30]: 88%
Activity [31]: 82%
Activity [32]: 77%
Activity [33]: 88%
remaining at 0.5 h [34]: 28%
remaining at 0.5 h [35]: 32.9%
SMILES: COCC(C)Nc1ccc(NS(=O)(=O)N(C)C)c(Nc2ccc3[nH]nnc3c2)n1 (centres undefined)

IC50 [1]: 4.45 µM
IC50 [2]: 4.38 µM
SMILES: CN(C)S(=O)(=O)Nc1ccc(N2C3CCC2COC3)nc1Nc1ccc2[nH]nnc2c1

IC50 [1]: 7.64 µM
IC50 [2]: 11.3 µM
SMILES: CN(C)S(=O)(=O)Nc1ccc(NCc2ccc(F)cc2F)nc1Nc1ccc2[nH]nnc2c1

More lines, now with the values behind:

SMILES: CCCS(=O)(=O)Nc1ccc(NC(C)C)nc1Nc1ccc2[nH]nnc2c1
IC50 [1]: 3.23 µM
IC50 [2]: 3.02 µM

SMILES: CC(C)Nc1ccc(NC(=O)Nc2ccccc2)c(Nc2ccc3[nH]nnc3c2)n1
IC50 [1]: 6.89 µM
IC50 [2]: 10.2 µM

SMILES: C[C@H](Nc1ccc(NS(=O)(=O)N(C)C)c(Nc2ccc3[nH]nnc3c2)n1)[C@@H](c1ccccc1)N(C)C
IC50 [1]: 3.22 µM
IC50 [2]: 6.9 µM

SMILES: CC(C)Nc1ccc(NS(=O)(=O)C2CCCCC2)c(Nc2ccc3[nH]nnc3c2)n1
IC50 [1]: 0.66 µM
IC50 [2]: 0.9 µM

SMILES: CC(C)Nc1ccc(NS(=O)(=O)c2cccnc2)c(Nc2ccc3[nH]nnc3c2)n1
IC50 [1]: 0.83 µM
IC50 [2]: 0.8 µM

SMILES: CC(C)Nc1ccc([N+](=O)[O-])c(Nc2ccc3c(c2)nnn3C(=O)c2ccccc2)n1
IC50 [1]: 4.27 µM
IC50 [2]: 10.2 µM

SMILES: CC(C)Nc1ccc(NS(C)(=O)=O)c(Nc2ccc3[nH]nnc3c2)n1
IC50 [1]: 2.47 µM
IC50 [2]: 2.86 µM

SMILES: CC(C)Nc1ccc(NS(=O)(=O)C2CC2)c(Nc2ccc3[nH]nnc3c2)n1
IC50 [1]: 1.83 µM
IC50 [2]: 1.8 µM

SMILES: CC(C)Nc1ccc(NS(=O)(=O)c2ccccc2C(F)(F)F)c(Nc2ccc3[nH]nnc3c2)n1
IC50 [1]: 1.61 µM
IC50 [2]: 1.57 µM

SMILES: CC(C)Nc1ccc([N+](=O)[O-])c(Nc2ccc3c(c2)nnn3C)n1
IC50 [1]: 4.22 µM
IC50 [2]: 10.3 µM

SMILES: CC(C)Nc1ccc(NS(=O)(=O)c2c(F)cc(F)cc2F)c(Nc2ccc3[nH]nnc3c2)n1
IC50 [1]: 0.62 µM
IC50 [2]: 0.9 µM

SMILES: CC(C)Nc1ccc(NS(=O)(=O)c2ccccc2F)c(Nc2ccc3[nH]nnc3c2)n1
IC50 [1]: 1.42 µM
IC50 [2]: 1.66 µM

SMILES: CC(C)Nc1ccc([N+](=O)[O-])c(Nc2ccc3c(c2)nnn3S(=O)(=O)c2ccccc2)n1
IC50 [1]: 3.1 µM
IC50 [2]: 4.47 µM
